Laboratory results as given in patent US20250243176A1, “(S)-1-(1-ACRYLOYLPIPERIDIN-3-YL)-2-FLUORO-5,6,7,8,9,10-HEXAHYDROCYCLO HEPTA[B]INDOLE-4-CARBOXAMIDE, AND RELATED CRYSTALLINE FORMS, COMPOSITIONS, AND METHODS THEREOF” (GB005, Inc., priority 2021, published 2025).
≈ marks a conversion by molar mass, not a printed value. Like-named read-outs stand apart in the source and are kept apart here.

Tests used:
[1] = Solubility testing in vehicle, HPLC (Form III); type: physicochemical; settings: thermodynamic from solid
Description: (§1) In each of the following studies (Examples 6-10), the starting material was Compound 1 (free form, not salt) Form III. The material was a light yellow solid, comprising non-hygroscopic irregular shaped crystal with aggregation. The same analytical methods as described in Example 1 were employed.
Vehicle solutions were prepared as follows:
Solubility was determined at room temperature for 24 and 72 hours and at 45° C. for 4 and 24 hours. About 30/100 mg Compound 1 was added to vehicle (2 mL) and the mixture stirred at room temperature for 24 or 72 hours. The suspensions were filtered or centrifuged, and the filtrate analyzed by HPLC.

[2] = pKa determination, Sirius T3 titrator (Form III); type: physicochemical; settings: titrations at 25° C., acidic and basic sites
Description: as §1
pKa was assessed using Sirius T3 titrator. The acidic and basic sites were very weak, and undetectable by Sirius T3.

[3] = Phase 1 multiple ascending dose plasma pharmacokinetics; type: in vivo, human; settings: for Tmax / half-life / Cmax / AUC(0-inf): fed; for half-life / Cmax / AUC(0-inf): human, plasma, oral; for half-life: 15 mg; for AUC(0-inf): read-out: AUC0-inf or tau
Excerpt: Part A is a randomized, double-blind, placebo-controlled, single- and -multiple-dose study with staggered dose escalation, administered in the fed state (standard moderate-fat meal). Part A consists of […] (up to 7 single-ascending dose [SAD] cohorts [Cohorts 1-6 & 14], and up to 3 multiple ascending dose [MAD] cohorts [Cohorts 7-9]). Subjects are randomized in a 3:1 ratio per cohort to receive either: Compound 1 Formulation A (N=6 for Cohorts 1-4 and N=9 for Cohorts 5-9 & 14); or placebo (PBO; N=2 for Cohorts 1-4 and N=3 for Cohorts 5-9 & 14).
• Cohorts 7 and 8: Day 1, all subjects begin once-daily multiple dose administration of Formulation A Compound 1 or placebo for 10 days. • Cohort 9: Day −1, all subjects receive placebo. • Day 1, all subjects begin once-daily multiple dose administration of • Compound 1 or placebo for 10 days.
Results: Preliminary pharmacokinetic results from 1 completed MAD cohort are presented, including 12 subjects receiving 15 mg once daily for 10 days randomized in a 3:1 ratio to receive Compound 1 or placebo) in a fed state (moderate-fat meal). […] Preliminary PK parameters are presented in Table 47 (all pharmacokinetic parameters of […] are reported as Mean (% coefficient of variation), except for Tmax and t1/2, which are reported as Median (Min, Max), and in FIG. 27 showing single and multiple dose plasma profiles (Mean±SD).

BTK = BTK inactivation kinetics in peripheral and CNS tissue
Excerpt: (S)-1-(1-acryloylpiperidin-3-yl)-2-fluoro-5,6,7,8,9,10-hexahydrocyclohepta[b]indole-4-carboxamide, hereinafter referred to as “Compound 1”, is an orally available, selective, potent inhibitor of Bruton's tyrosine kinase (BTK), thereby providing potential treatment options in BTK-driven diseases. The potency of Compound 1 for BTK inhibition is in the nM range in both cell-free enzymatic and whole blood functional assays.

[4] = oil or lipid, Phosal 50PG, RT, pH 5.8, loading 50 mg/mL
[5] = oil or lipid, Sesame oil, RT, pH 6.5, loading 15 mg/mL
[6] = both sexes, Cohort 7, 15 mg once daily, Day 1, mean
[7] = Cohort 7, 15 mg once daily, Day 10, mean

C=CC(=O)N1CCC[C@@H](c2c(F)cc(C(N)=O)c3[nH]c4c(c23)CCCCC4)C1 [Compound 1, (S)-1-(1-acryloylpiperidin-3-yl)-2-fluoro-5,6,7,8,9,10-hexahydrocyclohepta[b]indole-4-carboxamide]
solubility at 72 h ([1]; oil or lipid, Miglyol 810, RT, pH 5.8, loading 15 mg/mL): 2.67 mg/mL (≈ 6.96 mM)
solubility at 4 h ([1]; oil or lipid, Oleic acid, 45° C., pH 3.0, loading 15 mg/mL): 8500 µg/mL (≈ 22.2 mM)
solubility at 24 h ([1]; oil or lipid, Oleic acid, 45° C., pH 3.3, loading 15 mg/mL): 14 mg/mL (≈ 36.5 mM)
solubility at 24 h ([1]; oil or lipid, Olive oil, RT, pH 5.2, loading 15 mg/mL): 0.44 mg/mL (≈ 1.15 mM)
solubility at 72 h ([1]; oil or lipid, Olive oil, RT, pH 5.8, loading 15 mg/mL): 0.91 mg/mL (≈ 2.37 mM)
solubility at 24 h [1, 4]: 15.7 mg/mL (≈ 40.8 mM)
solubility at 72 h [1, 4]: 23.8 mg/mL (≈ 62 mM)
solubility at 24 h [1, 5]: 0.73 mg/mL (≈ 1.9 mM)
solubility at 72 h [1, 5]: 0.76 mg/mL (≈ 1.98 mM)
solubility at 4 h ([1]; oil or lipid, phsal 53 MCT, 45° C., pH 5.3, loading 15 mg/mL): 6400 µg/mL (≈ 16.7 mM)
solubility at 24 h ([1]; oil or lipid, phsal 53 MCT, 45° C., pH 5.1, loading 15 mg/mL): > 15 mg/mL
solubility at 24 h ([1]; organic solvent or mixture, Cremophor EL, RT, pH 8.5, loading 50 mg/mL): 19.5 mg/mL (≈ 50.9 mM)
solubility at 72 h ([1]; organic solvent or mixture, Cremophor EL, RT, pH 8.3, loading 50 mg/mL): 33 mg/mL (≈ 86.1 mM)
solubility at 4 h ([1]; organic solvent or mixture, Cremophor HS 15, 45° C., pH 7.6, loading 50 mg/mL): > 50000 µg/mL
solubility at 24 h ([1]; organic solvent or mixture, Cremophor HS 15, 45° C., pH 7.5, loading 50 mg/mL): > 50 mg/mL
solubility at 24 h ([1]; organic solvent or mixture, Cremophor RH40, 45° C., loading 50 mg/mL): 33 mg/mL (≈ 86.1 mM)
solubility at 24 h ([1]; organic solvent or mixture, EtOH, RT, pH 5.9, loading 50 mg/mL): 19.4 mg/mL (≈ 50.6 mM)
solubility at 72 h ([1]; organic solvent or mixture, EtOH, RT, pH 6.2, loading 50 mg/mL): 27.6 mg/mL (≈ 72 mM)
solubility at 4 h ([1]; organic solvent or mixture, PEG400/TPGS(3/1), 45° C., pH 6.6, loading 50 mg/mL): > 50000 µg/mL
solubility at 24 h ([1]; organic solvent or mixture, PEG400/TPGS(3/1), 45° C., pH 6.1, loading 50 mg/mL): > 50 mg/mL
solubility at 24 h ([1]; organic solvent or mixture, PEG400, RT, pH 5.6, loading 50 mg/mL): > 50 mg/mL
solubility at 72 h ([1]; organic solvent or mixture, PEG400, RT, pH 6.7, loading 50 mg/mL): > 50 mg/mL
solubility at 24 h ([1]; organic solvent or mixture, PG, RT, pH 5.1, loading 50 mg/mL): 48.2 mg/mL (≈ 126 mM)
solubility at 72 h ([1]; organic solvent or mixture, PG, RT, pH 5.2, loading 50 mg/mL): > 50 mg/mL
pKa [2]: undetectable
accumulation upon once-daily dosing ([3]; 15 mg once daily for 10 days): Minimal to no accumulation
Tmax ([3]; Cohort 7, 15 mg once daily, Day 1, median): 1.5 br
Tmax ([3]; Cohort 7, 15 mg once daily, Day 10, median): 1.5 br
half-life ([3]; both sexes, MAD cohort, 15 mg once daily for 10 days, read-out: terminal half-life (converted)): ~180 min
Cmax [3, 6]: 85.8 ng/mL
AUC(0-inf) [3, 6]: 312 ng·h/mL
half-life ([3]; Cohort 7, 15 mg once daily, Day 1, median, read-out: T1/2 (converted)): 191 min
half-life ([3]; Cohort 7, 15 mg once daily, Day 10, median, read-out: T1/2 (converted)): 202 min
Cmax [3, 7]: 102 ng/mL
AUC(0-inf) [3, 7]: 353 ng·h/mL
BTK inactivation kinetics (BTK): rapid
